Data published in patent US9458196B2, “Synthetic peptides capable of binding to influenza hemagglutinin protein” (priority 2012, dated 2016).

tested on: HA proteins from five different viral strains H1N1, H5N1, H9N2, H3N2 and H14N5; format: biochemical, influenza virus

| Sequence | ability to block pH triggered shape changes / low pH induced association of HA proteins |
| --- | --- |
| AERPKVRGQAGRMN [LPF54] | ability to block pH triggered shape changes |
| KEFNNLEKR [PF42] | ability to block pH triggered shape changes |
| KEFSEVEGR [PF41] | ability to block pH triggered shape changes |
| PGDFNDYE [PF13] | ability to block pH triggered shape changes |
| PYDVPDYA [PF12] | ability to block pH triggered shape changes |
| PYDVPDYE [PF11] | ability to block pH triggered shape changes |
| TKRSQQTVIP [PF31] | ability to block pH triggered shape changes |
| TSRSQQTVIP [PF32] | ability to block pH triggered shape changes |
